*1 amine or outer side, *2 acyl side, *3 side chain or, on linkers, in order; H or OH if unused. Where a SMILES comes first, the peptide text is derived from it. Bridges are numbered along the chain shown (N, C = ends). [ ]: non-standard residue; d: D form. The star is where a group is joined. X53 = CN1[C@@H]2CC[C@H]1CN(c1ccc(-c3ccc(Cl)cc3C[C@@H](C(=O)[*:2])N(C)[*:1])cc1)C2; X52 = CN1C[C@@H]2C[C@H]1CN2c1ccc(-c2ccc(Cl)cc2C[C@@H](C(=O)[*:2])N(C)[*:1])cc1; X38 = CN([C@@H](Cc1cc(Cl)ccc1-c1ccc(N2C[C@H]3COC[C@H]3C2)cc1)C(=O)[*:2])[*:1]; X3 = COCCOCCN1CCN(c2ccc(-c3ccc(Cl)cc3C[C@@H](C(=O)[*:2])N(C)[*:1])cc2)CC1; X50 = CN([C@@H](Cc1cc(Cl)ccc1-c1ccc(N2CCN(C3COC3)CC2)cc1)C(=O)[*:2])[*:1]; X43 = CC(C)N1CCN(c2ccc(-c3ccc(Cl)cc3C[C@@H](C(=O)[*:2])N(C)[*:1])cc2)CC1; X98 = CN1CC2(C1)OCc1cc(-c3ccc(Cl)cc3C[C@@H](C(=O)[*:2])N(C)[*:1])ccc12; X40 = CN1CCN(Cc2ccc(-c3ccc(Cl)cc3C[C@@H](C(=O)[*:2])N(C)[*:1])cc2)CC1; X80 = CN1CC=C(c2ccc(-c3ccc(Cl)cc3C[C@@H](C(=O)[*:2])N(C)[*:1])cc2)CC1; X31 = CN1CCC(c2ccc(-c3ccc(Cl)cc3C[C@@H](C(=O)[*:2])N(C)[*:1])cc2)CC1; X71 = CN([C@@H](Cc1cc(Cl)ccc1-c1ccc(N2CCOCC2)c(F)c1)C(=O)[*:2])[*:1]; X108 = CN([C@@H](Cc1cc(Cl)ccc1-c1ccc(CN2CCOCC2)cc1)C(=O)[*:2])[*:1]; X12 = CN1CCN(c2ccc(-c3ccc(F)cc3C[C@@H](C(=O)[*:2])N(C)[*:1])cc2)CC1; X81 = COc1cc(N2CCOCC2)ccc1-c1ccc(Cl)cc1C[C@@H](C(=O)[*:2])N(C)[*:1]; NMehhhLys(Me) = CN([C@@H](CCCCCCCN(C)[*:3])C(=O)[*:2])[*:1]; cBuCO(3,3-F2-1-CF3) = O=C(C1(C(F)(F)F)CC(F)(F)C1)*; Pro(trans-4-F) = O=C(O)[C@@H]1C[C@@H](F)CN1; Gly(cPr) = N[C@H](C(=O)O)C1CC1
Columns and labels:
[1] = target: T1, CyclinA2/CDK2 (Homo sapiens, UniProt P20248); experiment: Fluorescence Polarization (FP) competitive binding assay, Cyclin A2/Cdk2; conditions: 8 nM Cyclin A2/Cdk2, 2 nM FAM probe; average of 2-3 independent experiments; read-out: Cyclin A FP IC50;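 also: plates equilibrated two hours at room temperature before polarization reading, IC50 fitted from eight-concentration compound titration curves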
T1 construct: purchased CRELUX Protein Services

[2] = target: T2, CyclinE1/CDK2 (Homo sapiens, UniProt P24864); experiment: Fluorescence Polarization (FP) competitive binding assay, Cyclin E1/Cdk2; conditions: 10 nM Cyclin E1/Cdk2, 2 nM FAM probe; average of 2-3 independent experiments; read-out: Cyclin E FP IC50;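 also: readings taken after two-hour equilibration at room temperature in HEPES buffer with NaCl, DTT, NP-40 and BSA, IC50 fitted from eight-concentration serial dilution series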
T2 construct: purchased Eurofins, discovery 14-475

[3] = target: T3, CyclinB1/CDK1 (Homo sapiens, UniProt P14635); experiment: Fluorescence Polarization (FP) competitive binding assay, Cyclin B1/Cdk1; conditions: 10 nM Cyclin B1/Cdk1, 2 nM FAM probe; average of 2-3 independent experiments; read-out: Cyclin B FP IC50;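 also: fluorescence polarization read after equilibration at room temperature, with IC50 taken from serially diluted dose-response curves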
T3 construct: purchased Eurofins, discovery 14-450

[4] = tested on: WI-38 cells; experiment: MTT proliferation assay, WI-38; assay type: cell-based; conditions: 3 days compound exposure, 1:3 serial dilution starting at 10 μM;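 also: Eight- or ten-point dilution series, with exposure length chosen to span about three to four cell doublings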
[5] = tested on: OVCAR3 cells; experiment: MTT proliferation assay, OVCAR3; assay type: cell-based; conditions: 5 days compound exposure, 1:3 serial dilution starting at 10 μM;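 also: compound given as an 8- or 10-point series, one day after plating, with exposure covering roughly 3-4 cell doublings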
[6] = tested on: NCI-H1048 cells; experiment: MTT proliferation assay, NCI-H1048; assay type: cell-based; conditions: 5 days compound exposure, 1:3 serial dilution starting at 10 μM;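 also: Dose-response in 96-well plates over 8 or 10 concentration points, with exposure spanning 3-4 cell doublings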

| Compound | IC50 [1] | IC50 [2] | IC50 [3] | GI50 [4] | GI50 [5] | GI50 [6] |
| --- | --- | --- | --- | --- | --- | --- |
| CC(C)C[C@@H]1NC(=O)[C@@H](N(C)C(=O)[C@@H](NC(=O)[C@@H]2C[C@@H](F)CN2C(=O)C2(C(F)(F)F)CC(F)(F)C2)C2CC2)CCCCCCCN(C)C(=O)[C@H](Cc2cc(Cl)ccc2-c2ccc(N3CCN(C4COC4)CC3)cc2)N(C)C1=O [Example 346] ({cBuCO(3,3-F2-1-CF3)}-[Pro(trans-4-F)][Gly(cPr)][NMehhhLys(Me)]L[X50]; lactam 3-C) | 20 nM | 360 nM | 20 nM | 3680 nM | 10 nM | 10 nM |
| CC(C)C[C@@H]1NC(=O)[C@@H](N(C)C(=O)[C@@H](NC(=O)[C@@H]2C[C@@H](F)CN2C(=O)C2(C(F)(F)F)CC(F)(F)C2)C2CC2)CCCCCCCN(C)C(=O)[C@H](Cc2cc(Cl)ccc2-c2ccc(N3CCN(C(C)C)CC3)cc2)N(C)C1=O [Example 347] ({cBuCO(3,3-F2-1-CF3)}-[Pro(trans-4-F)][Gly(cPr)][NMehhhLys(Me)]L[X43]; lactam 3-C) | 20 nM | 650 nM | 20 nM | 1810 nM | 10 nM | 10 nM |
| CC(C)C[C@@H]1NC(=O)[C@@H](N(C)C(=O)[C@@H](NC(=O)[C@@H]2C[C@@H](F)CN2C(=O)C2(C(F)(F)F)CC(F)(F)C2)C2CC2)CCCCCCCN(C)C(=O)[C@H](Cc2cc(Cl)ccc2-c2ccc(N3CCOCC3)c(F)c2)N(C)C1=O [Example 348] ({cBuCO(3,3-F2-1-CF3)}-[Pro(trans-4-F)][Gly(cPr)][NMehhhLys(Me)]L[X71]; lactam 3-C) | 20 nM | 880 nM | 20 nM | 18000 nM | 10 nM | 10 nM |
| CC(C)C[C@@H]1NC(=O)[C@@H](N(C)C(=O)[C@@H](NC(=O)[C@@H]2C[C@@H](F)CN2C(=O)C2(C(F)(F)F)CC(F)(F)C2)C2CC2)CCCCCCCN(C)C(=O)[C@H](Cc2cc(Cl)ccc2-c2ccc(C3=CCN(C)CC3)cc2)N(C)C1=O [Example 351] ({cBuCO(3,3-F2-1-CF3)}-[Pro(trans-4-F)][Gly(cPr)][NMehhhLys(Me)]L[X80]; lactam 3-C) | 20 nM | 970 nM | 20 nM | 1780 nM | 10 nM | 10 nM |
| CC(C)C[C@@H]1NC(=O)[C@@H](N(C)C(=O)[C@@H](NC(=O)[C@@H]2C[C@@H](F)CN2C(=O)C2(C(F)(F)F)CC(F)(F)C2)C2CC2)CCCCCCCN(C)C(=O)[C@H](Cc2cc(F)ccc2-c2ccc(N3CCN(C)CC3)cc2)N(C)C1=O [Example 353] ({cBuCO(3,3-F2-1-CF3)}-[Pro(trans-4-F)][Gly(cPr)][NMehhhLys(Me)]L[X12]; lactam 3-C) | 20 nM | 220 nM | 20 nM | 3490 nM | 10 nM | 10 nM |
| CC(C)C[C@@H]1NC(=O)[C@@H](N(C)C(=O)[C@@H](NC(=O)[C@@H]2C[C@@H](F)CN2C(=O)C2(C(F)(F)F)CC(F)(F)C2)C2CC2)CCCCCCCN(C)C(=O)[C@H](Cc2cc(Cl)ccc2-c2ccc3c(c2)COC32CN(C)C2)N(C)C1=O [Example 355] ({cBuCO(3,3-F2-1-CF3)}-[Pro(trans-4-F)][Gly(cPr)][NMehhhLys(Me)]L[X98]; lactam 3-C) | 20 nM | 1760 nM | 20 nM | 2770 nM | 10 nM | 10 nM |
| COCCOCCN1CCN(c2ccc(-c3ccc(Cl)cc3C[C@H]3C(=O)N(C)CCCCCCC[C@H](N(C)C(=O)[C@@H](NC(=O)[C@@H]4C[C@@H](F)CN4C(=O)C4(C(F)(F)F)CC(F)(F)C4)C4CC4)C(=O)N[C@@H](CC(C)C)C(=O)N3C)cc2)CC1 [Example 356] ({cBuCO(3,3-F2-1-CF3)}-[Pro(trans-4-F)][Gly(cPr)][NMehhhLys(Me)]L[X3]; lactam 3-C) | 20 nM | 340 nM | 20 nM | 3430 nM | 10 nM | 10 nM |
| CC(C)C[C@@H]1NC(=O)[C@@H](N(C)C(=O)[C@@H](NC(=O)[C@@H]2C[C@@H](F)CN2C(=O)C2(C(F)(F)F)CC(F)(F)C2)C2CC2)CCCCCCCN(C)C(=O)[C@H](Cc2cc(Cl)ccc2-c2ccc(N3C[C@@H]4C[C@H]3CN4C)cc2)N(C)C1=O [Example 357] ({cBuCO(3,3-F2-1-CF3)}-[Pro(trans-4-F)][Gly(cPr)][NMehhhLys(Me)]L[X52]; lactam 3-C) | 30 nM | 1970 nM | 20 nM | 3140 nM | 50 nM | 20 nM |
| CC(C)C[C@@H]1NC(=O)[C@@H](N(C)C(=O)[C@@H](NC(=O)[C@@H]2C[C@@H](F)CN2C(=O)C2(C(F)(F)F)CC(F)(F)C2)C2CC2)CCCCCCCN(C)C(=O)[C@H](Cc2cc(Cl)ccc2-c2ccc(C3CCN(C)CC3)cc2)N(C)C1=O [Example 358] ({cBuCO(3,3-F2-1-CF3)}-[Pro(trans-4-F)][Gly(cPr)][NMehhhLys(Me)]L[X31]; lactam 3-C) | 20 nM | 550 nM | 20 nM | 2130 nM | 10 nM | 10 nM |
| CC(C)C[C@@H]1NC(=O)[C@@H](N(C)C(=O)[C@@H](NC(=O)[C@@H]2C[C@@H](F)CN2C(=O)C2(C(F)(F)F)CC(F)(F)C2)C2CC2)CCCCCCCN(C)C(=O)[C@H](Cc2cc(Cl)ccc2-c2ccc(CN3CCOCC3)cc2)N(C)C1=O [Example 359, (2S,4R)—N—((S)-2-(((3S,6S,9S)-3-((4-chloro-4′-(morpholinomethyl)-[1,1′-biphenyl]-2-yl)methyl)-6-isobutyl-1,4-dimethyl-2,5,8-trioxo-1,4,7-triazacyclohexadecan-9-yl)(methyl)amino)-1-cyclopropyl-2-oxoethyl)-1-(3,3-difluoro-1-(trifluoromethyl)cyclobutane-1-carbonyl)-4-fluoropyrrolidine-2-carboxamide] ({cBuCO(3,3-F2-1-CF3)}-[Pro(trans-4-F)][Gly(cPr)][NMehhhLys(Me)]L[X108]; lactam 3-C) | 20 nM | 680 nM | 20 nM | 4560 nM | 10 nM | 10 nM |
| CC(C)C[C@@H]1NC(=O)[C@@H](N(C)C(=O)[C@@H](NC(=O)[C@@H]2C[C@@H](F)CN2C(=O)C2(C(F)(F)F)CC(F)(F)C2)C2CC2)CCCCCCCN(C)C(=O)[C@H](Cc2cc(Cl)ccc2-c2ccc(CN3CCN(C)CC3)cc2)N(C)C1=O [Example 360] ({cBuCO(3,3-F2-1-CF3)}-[Pro(trans-4-F)][Gly(cPr)][NMehhhLys(Me)]L[X40]; lactam 3-C) | 20 nM | 860 nM | 20 nM | 2720 nM | 10 nM | 10 nM |
| COc1cc(N2CCOCC2)ccc1-c1ccc(Cl)cc1C[C@H]1C(=O)N(C)CCCCCCC[C@H](N(C)C(=O)[C@@H](NC(=O)[C@@H]2C[C@@H](F)CN2C(=O)C2(C(F)(F)F)CC(F)(F)C2)C2CC2)C(=O)N[C@@H](CC(C)C)C(=O)N1C [Example 361] ({cBuCO(3,3-F2-1-CF3)}-[Pro(trans-4-F)][Gly(cPr)][NMehhhLys(Me)]L[X81]; lactam 3-C) | 50 nM | 1840 nM | 20 nM | 14300 nM | 10 nM | 30 nM |
| CC(C)C[C@@H]1NC(=O)[C@@H](N(C)C(=O)[C@@H](NC(=O)[C@@H]2C[C@@H](F)CN2C(=O)C2(C(F)(F)F)CC(F)(F)C2)C2CC2)CCCCCCCN(C)C(=O)[C@H](Cc2cc(Cl)ccc2-c2ccc(N3C[C@H]4CC[C@@H](C3)N4C)cc2)N(C)C1=O [Example 362] ({cBuCO(3,3-F2-1-CF3)}-[Pro(trans-4-F)][Gly(cPr)][NMehhhLys(Me)]L[X53]; lactam 3-C) | 20 nM | 600 nM | 20 nM | 1280 nM | 10 nM | 10 nM |
| CC(C)C[C@@H]1NC(=O)[C@@H](N(C)C(=O)[C@@H](NC(=O)[C@@H]2C[C@@H](F)CN2C(=O)C2(C(F)(F)F)CC(F)(F)C2)C2CC2)CCCCCCCN(C)C(=O)[C@H](Cc2cc(Cl)ccc2-c2ccc(N3C[C@H]4COC[C@H]4C3)cc2)N(C)C1=O [Example 363] ({cBuCO(3,3-F2-1-CF3)}-[Pro(trans-4-F)][Gly(cPr)][NMehhhLys(Me)]L[X38]; lactam 3-C) | 20 nM | 470 nM | 20 nM | 1430 nM | 10 nM | 10 nM |
